Test results: a melting point compilation (Tetko et al.; mined from patent text by program, amines drawn as free bases though some values may be those of a salt)

Row | melting point [°C] | SMILES
1 | 258 | Cc1cccc(-c2coc3cc(O)c(O)cc3c2=O)c1
2 | 133 to 135 | CN(C)CCNC(=O)N1CCN(c2ccc(Br)cc2)CC1
3 | 154 to 155 | N#CCCNC(=S)C1=CC(CF)(CF)Oc2cc(Cl)c(Cl)cc21
4 | 83 to 85 | CN(C)CCCN1N=C2C(=Cc3ccccc3)CSCC2C1c1ccccc1 (stereo not drawn)
5 | 144 to 146 | O=C1NC(=O)C(Cc2ccc3cc(OCc4ccccc4)ccc3n2)S1 (stereo not drawn)
6 | 161 to 162 | CNc1cnn(-c2ccc(F)cc2)c(=O)c1-c1cccc(C(F)(F)F)c1
7 | 98 to 105 | CCOC(=O)NC(=O)CNS(=O)(=O)c1ccc(N2CCC(NC[C@H](O)c3ccc(O)c(NS(C)(=O)=O)c3)CC2)cc1
8 | 49 to 51 | CC(C)(CCCCOCCCCC(C)(C)C(=O)O)C(=O)O
9 | 25.5 to 26 | CCCCCCCCCCC#Cc1csc(C=O)n1
10 | 74 to 76 | CC(=NNCCc1ccccc1)C(=O)O
11 | 224 to 226 | Oc1ccc(Oc2cccc(-c3nnc(Nc4ccc(Cl)c(Cl)c4)s3)c2)cc1
12 | 181 to 183 | Cc1ccccc1P1(=O)c2ccccc2CN1c1ccccc1 (stereo not drawn)
13 | 101 to 102 | COc1ccccc1NC(=O)CCCC(C)=O
14 | 136 to 137 | CC(=O)Nc1cc2c(cc1C#N)C=CC(C)(C)O2
15 | 175 to 180 | O=C(Nc1ccc(CN2C(=O)[C@H]3CCC[C@H]3N(C(=O)CN3C(=O)c4ccccc4C3=O)c3ccccc32)cc1)c1ccc(Br)cc1 (relative stereo)
16 | 108 to 109 | CCCCCCCCCCCCCCCCCCN(C)c1ccc([N+](=O)[O-])cc1C(=O)O
17 | 258 to 260 | c1ccc(C2(n3ccnc3)c3ccccc3C(c3ccccc3)(n3ccnc3)c3ccccc32)cc1 (stereo not drawn)
18 | 210 to 213 | CCS(=O)(=O)c1nn2c(-c3ccc(OC)cc3)nnc2c2ccccc12
19 | 151 to 153 | C=CCC1(CC=C)c2cccc(Cl)c2C(=O)c2c(OC)cccc21
20 | > 225 | O=C1N(Cc2ccccn2)c2cccc(Br)c2C1(O)c1cc2c(cc1O)OCC2 (stereo not drawn)
21 | 124 to 127 | Nc1nc2c(c(N3CCN(Cc4ccccc4)CC3)n1)SCCC2
22 | 103 to 105 | CCOP(=O)(CCN1CCCCNc2c1c(=O)c2=O)OCC
23 | 241 to 243 | Cc1cc(=O)n(C)c2c(C)cc(C(O)(C(F)(F)F)C(F)(F)F)cc12

Row | melting point [°C] | SMILES
24 | 218 to 220 | CCC(=O)N(C)C1CCN(Cc2cc3cccnc3n(-c3ccccc3F)c2=O)CC1
25 | 212 to 213 | Cc1ncc2cc(-c3c(Cl)cccc3Cl)c(NS(C)(=O)=O)nc2n1
26 | 199 to 201 | Fc1ccc2[nH]c3c(c2c1)CN(CCc1ccccn1)CC3
27 | 193 to 195 | O=C(c1cccs1)c1cnn2c(-c3cccc(Br)c3)ccnc12
28 | 193 to 195 | COc1ccc([N+](=O)[O-])c(CCc2cc(OC)ccc2[N+](=O)[O-])c1
29 | 217 to 221 | C=CCc1c(-c2ccc(C#N)cc2)[nH]c2cc(C#N)ccc12
30 | 88 to 91 | O=C1NC(=O)C(Cc2ccc(OCc3nc4cccnc4n3-c3ccccc3)cc2)S1 (stereo not drawn)
31 | 168 | COc1ccc2c(c1)CCC1(C)C2=CCC2(C)C(O)CCC12 (stereo not drawn)
32 | 172 to 174 | CON=C(C(=O)OC)c1nsc(N)n1
33 | 55 to 56 | CC(NOCc1ccccc1)c1cc2ccccc2s1 (stereo not drawn)
34 | 85 to 88 | CC(O)C1=C(c2ccccc2)C(=O)N(C(C)(C)C(=O)Nc2cc(Cl)cc(Cl)c2)CO1 (stereo not drawn)
35 | 175 to 176 | COc1ccc(-c2c(C(C)=O)c(CSc3nccn3C)nc3cc(OC)c(OC)cc23)cc1OC
36 | 178 to 179 | CC(C)c1[nH]nc(C(N)=O)c1N
37 | 154 to 155 | O=C1[C@H]2CCC[C@H]2Nc2ccccc2N1Cc1ccc(OCc2ccccc2)cc1 (relative stereo)
38 | 240 to 241 | COC(=O)c1c(C(=O)OC)c2n(c1C)Cc1c(c3ccccc3n1C)C2
39 | 210 | Oc1ccc2cc(-c3ccc(-c4ccccc4)[nH]3)ccc2c1
40 | 95 to 97 | COc1ccc(-c2cc(-c3ccc(-c4c(Cc5ccccc5)sc5ccccc45)cc3)ccc2OCC(=O)O)cc1OC
41 | 178 to 179 | COc1cc2c(cc1OC)-c1cc(=Nc3c(C)cc(C)cc3C)n(C(C)C)c(=O)n1CC2
42 | 194 to 196 | O=C(NC(=O)c1c(F)cccc1F)Nc1ccc(Oc2ccc(Cl)cc2)c(Cl)c1
43 | 178 | CC(C)Cn1c(=O)n(C)c(=O)c2cn(Cc3cccc4ccccc34)nc21
44 | 193 to 195 | COc1ccc(C2Sc3ccccc3NC(=O)C2OC(C)=O)cc1 (stereo not drawn)
45 | 71 to 73 | CCCC[C@]1(CC)CS(=O)(=O)c2cc3c(cc2[C@@H](c2ccccc2)N1)OCO3
46 | 125 to 127 | CCOc1ccc(C(=O)[C@H]2CC=CC[C@H]2C(=O)O)cc1OCC (relative stereo)

Row | melting point [°C] | SMILES
47 | 225 to 227 | CC12CCC3=C(CCc4cc(O)ccc43)C1CCC2=O (stereo not drawn)
48 | 141 | Cc1nc2c(OCc3ccccc3)cccn2c(=O)c1CCCl
49 | 187 to 190 | O=C(NCCCBr)c1cnn(-c2nc(-c3cccc(C(F)(F)F)c3)cs2)c1C(F)(F)F
50 | 89 to 91 | COc1cccc(C2(CCCCC(=O)O)CCCCC2=O)c1 (stereo not drawn)
51 | 79 | c1ccc(N2CCN(CCc3ccc4ccccc4n3)CC2)cc1
52 | 164 | CCOC(=O)CCCCCOc1cc(C=CC2=C(C#N)C(=C(C#N)C#N)OC2(C)C)ccc1N
53 | 51 to 53 | Cc1ccc(Cn2ccnc2)cc1
54 | 192 to 194 | Cc1cc(C(=O)Nc2ccccc2O)cc(Cl)c1O
55 | 144 to 146 | COc1cc(NC(=O)CC23CC4CC(CC(C4)C2)C3)cc(OC)c1
56 | 172 | COc1ccc(CN(C)CCc2ccc(NC(=O)c3cccc4c(=O)c5ccccc5[nH]c34)cc2)cc1OC
57 | 112 to 113 | O=C1CCn2c(CCc3ccccc3)nc3cccc1c32
58 | 172 to 178 | Cc1ccc(OCC(CO)NC(C)(C)C)c(-c2ccc(NN)nn2)c1 (stereo not drawn)
59 | 85 to 87 | CC1CCC(C(C)C)C(OC(=O)/C=C\C(=O)c2ccccc2)C1 (stereo not drawn)
60 | 144 to 145 | Cn1nc(C#N)c(Nc2ccccc2[N+](=O)[O-])n1
61 | 194 to 197 | CCC(CC)(COc1ccc2ncnn2n1)CS(N)(=O)=O
62 | 100 to 101 | COC(=O)c1ccc2cc(CCCc3cc4ccc(C(=O)OC)cc4o3)oc2c1
63 | 146 to 147 | COc1cc2cn(-c3c(C)c(C)c4c(c3C)C(c3ccc(C)cc3)C(C)(C)O4)cc2cc1OC (stereo not drawn)
64 | 266 to 268 | Nc1c(OCC(F)(F)F)cc(O)c2c1C(=O)c1ccccc1C2=O
65 | 148 to 149 | Cc1cc(=O)oc2nn(Cc3cccc(Cl)c3)c(C)c12
66 | 70 to 72 | COc1cccc(N2CCN(C(=O)NCCN(C)C)CC2)c1
67 | 57 | CCN(CC)C(=O)C(C)Cc1nc(-c2ccccc2)cc2ccccc12 (stereo not drawn)
68 | 94 to 95 | CC(C)(C)c1cc(SCSc2cc(C(C)(C)C)c(O)c(C(C)(C)C)c2)cc(C(C)(C)C)c1O
69 | 123 to 126 | CCOC(=O)N1CCN(c2nn(-c3ccc(C(F)(F)F)cc3)c3ccccc23)CC1

Row | melting point [°C] | SMILES
70 | 222 to 225 | CCOc1cccc(C(c2ncccc2OC)n2nc(C(=O)O)c3c2-c2ccc(OCc4cncnc4)cc2CC3)c1 (stereo not drawn)
71 | 183 to 187 | O=C(CC(=Cc1cccc2ccccc12)C(=O)O)NCCc1ccccc1
72 | 188 to 190 | Cc1ccc2nc(-c3ccc(N)c(Br)c3)sc2c1
73 | 192 to 195 | COc1ccc(S(=O)(=O)C2(C(=O)O)CCN(Cc3ccc(Cl)c(Cl)c3)CC2)cc1
74 | 118 to 121 | CC(C)(C)c1cc(OCc2ccc(C#N)cc2)cc(C(C)(C)C)c1
75 | 110 to 113 | OC1Cc2cc(F)ccc2Sc2ccccc21 (stereo not drawn)
76 | 110 to 113 | COc1cc2ncnc(Nc3cccc(N=[N+]=[N-])c3)c2cc1OC
77 | 84.5 to 87 | COC(=O)COC(=O)C(C)c1ccc2cc(O)ccc2c1 (stereo not drawn)
78 | 123 | CC1(C)CC(O)CC(C)(C)N1CC(O)c1ccccc1 (stereo not drawn)
79 | 108 to 110 | COc1ccc(S(=O)(=O)N2C(=O)C(N)(c3ccccc3)c3cc(Cl)ccc32)c(OC)c1 (stereo not drawn)
80 | 229 to 230 | Cc1ccc(-n2c3ccc(C=O)cc3c3cc(C=O)ccc32)cc1
81 | 142 to 143 | CCN(CC)CCNC(=O)Cn1c(-c2ccc(Cl)cc2)nc2cccnc21
82 | 226 to 227 | Nc1nc(N)c(-c2cc(Cl)cc(Cl)c2Cl)c(C(Cl)(Cl)Cl)n1
83 | 54 to 59 | O=[N+]([O-])c1ccc(CN2CCN(CC(O)COc3cccc4[nH]c5ccccc5c34)CC2)o1 (stereo not drawn)
84 | 152 to 154 | O=C(Cc1csc(-c2cccc(O)c2)n1)NC1C(=O)N2C(C(=O)OC(c3ccccc3)c3ccccc3)=CCSC12 (stereo not drawn)
85 | 82 | COc1cccnc1CCCCNc1nc(=O)c(C(O)c2ccc(C)nc2)c[nH]1 (stereo not drawn)
86 | 115 to 116 | CCOP(=O)(CCN1CCNc2c1c(=O)c2=O)OCC
87 | 148 to 149 | CCOC(=O)c1cn(Cc2cccnc2)nc1O
88 | 59 to 60 | O=C(CCCCCOc1ccc(OCc2ccccc2)cc1)C(F)(F)F
89 | 118 to 119 | COc1cc2c(c(Cl)c1Cl)C(=O)C(C(C)C)C2 (stereo not drawn)
90 | 236 to 238 | OC(c1cc2ccccc2c2ccccc12)c1cc2ccccc2c2ccccc12
91 | 125 to 126 | CN(C)CCc1ccc(OCCCNc2nc(N)nn2C)cc1
92 | 158 | COC(=O)c1c(SCc2ccc(OC)cc2)nc(-c2ccccc2)n1Cc1cc2c(cc1Cl)OCO2

Row | SMILES | melting point [°C]
93 | CN1CCC(c2nc3cccnc3[nH]2)CC1 | 224 to 226
94 | CCOC(=O)C1N=C(c2ccccc2)c2ccccc2NC1=O (stereo not drawn) | 226
95 | CCN1C[C@H](CN2CCN(C(c3ccccc3)c3ccccc3)CC2)C[C@@H]2c3cccc4[nH]cc(c34)C[C@H]21 | 203 to 205
96 | CC12CC(=O)C3C(CCC4CC(O)CCC43C)C1CCC2C(=O)CSc1ccccn1 (stereo not drawn) | 184
97 | COc1cc(F)c(CNCCc2ccc(O)cc2)cc1O | 160 to 162
98 | CC(C)(C)c1cc([PH](=O)O)cc(C(C)(C)C)c1O | 106 to 111
